According to patent publication US12139487B2, “Compounds and uses thereof” (Foghorn Therapeutics Inc., priority 2022, dated 2024):

How the values were obtained:
BRM = molecular target: T1, BRM (Homo sapiens, UniProt P51531); assay: ATPase catalytic activity assay (ADP-Glo), BRM; type: biochemical; settings: Table 10; for Ratio (BRG1 IC50 (μM) divided by BRM IC50 (μM)): ATPase assay, selectivity BRG1/BRM; for IC50: ATPase catalytic activity assay (ADP-Glo)
T1 construct: made in house; host or cells: High Five insect cells
How it was run: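 Reaction holds 30 nM BRM, 20 nM salmon sperm DNA and 400 μM ATP in 20 mM Tris pH 8, 20 mM MgCl2, 50 mM NaCl, 0.1% Tween-20, 1 mM DTT. Incubated 1 h at room temperature. ADP formed is detected by ADP-Glo luminescence.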

BRG-1 = molecular target: T2, BRG-1 (Homo sapiens, UniProt P51532); assay: ATPase catalytic activity assay (ADP-Glo), BRG-1; type: biochemical; settings: Table 10, read-out: BRG1 IC50
T2 construct: made in house; host or cells: High Five insect cells
How it was run: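 BRG-1 ATPase activity was measured in vitro by ADP-Glo. After the reaction, ADP-Glo Reagent depleted unconsumed ATP (40 min, room temperature), then Kinase Detection Reagent converted product ADP to ATP (60 min, room temperature), and luciferase luminescence was read.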

T1 sequence (P51531 whole entry): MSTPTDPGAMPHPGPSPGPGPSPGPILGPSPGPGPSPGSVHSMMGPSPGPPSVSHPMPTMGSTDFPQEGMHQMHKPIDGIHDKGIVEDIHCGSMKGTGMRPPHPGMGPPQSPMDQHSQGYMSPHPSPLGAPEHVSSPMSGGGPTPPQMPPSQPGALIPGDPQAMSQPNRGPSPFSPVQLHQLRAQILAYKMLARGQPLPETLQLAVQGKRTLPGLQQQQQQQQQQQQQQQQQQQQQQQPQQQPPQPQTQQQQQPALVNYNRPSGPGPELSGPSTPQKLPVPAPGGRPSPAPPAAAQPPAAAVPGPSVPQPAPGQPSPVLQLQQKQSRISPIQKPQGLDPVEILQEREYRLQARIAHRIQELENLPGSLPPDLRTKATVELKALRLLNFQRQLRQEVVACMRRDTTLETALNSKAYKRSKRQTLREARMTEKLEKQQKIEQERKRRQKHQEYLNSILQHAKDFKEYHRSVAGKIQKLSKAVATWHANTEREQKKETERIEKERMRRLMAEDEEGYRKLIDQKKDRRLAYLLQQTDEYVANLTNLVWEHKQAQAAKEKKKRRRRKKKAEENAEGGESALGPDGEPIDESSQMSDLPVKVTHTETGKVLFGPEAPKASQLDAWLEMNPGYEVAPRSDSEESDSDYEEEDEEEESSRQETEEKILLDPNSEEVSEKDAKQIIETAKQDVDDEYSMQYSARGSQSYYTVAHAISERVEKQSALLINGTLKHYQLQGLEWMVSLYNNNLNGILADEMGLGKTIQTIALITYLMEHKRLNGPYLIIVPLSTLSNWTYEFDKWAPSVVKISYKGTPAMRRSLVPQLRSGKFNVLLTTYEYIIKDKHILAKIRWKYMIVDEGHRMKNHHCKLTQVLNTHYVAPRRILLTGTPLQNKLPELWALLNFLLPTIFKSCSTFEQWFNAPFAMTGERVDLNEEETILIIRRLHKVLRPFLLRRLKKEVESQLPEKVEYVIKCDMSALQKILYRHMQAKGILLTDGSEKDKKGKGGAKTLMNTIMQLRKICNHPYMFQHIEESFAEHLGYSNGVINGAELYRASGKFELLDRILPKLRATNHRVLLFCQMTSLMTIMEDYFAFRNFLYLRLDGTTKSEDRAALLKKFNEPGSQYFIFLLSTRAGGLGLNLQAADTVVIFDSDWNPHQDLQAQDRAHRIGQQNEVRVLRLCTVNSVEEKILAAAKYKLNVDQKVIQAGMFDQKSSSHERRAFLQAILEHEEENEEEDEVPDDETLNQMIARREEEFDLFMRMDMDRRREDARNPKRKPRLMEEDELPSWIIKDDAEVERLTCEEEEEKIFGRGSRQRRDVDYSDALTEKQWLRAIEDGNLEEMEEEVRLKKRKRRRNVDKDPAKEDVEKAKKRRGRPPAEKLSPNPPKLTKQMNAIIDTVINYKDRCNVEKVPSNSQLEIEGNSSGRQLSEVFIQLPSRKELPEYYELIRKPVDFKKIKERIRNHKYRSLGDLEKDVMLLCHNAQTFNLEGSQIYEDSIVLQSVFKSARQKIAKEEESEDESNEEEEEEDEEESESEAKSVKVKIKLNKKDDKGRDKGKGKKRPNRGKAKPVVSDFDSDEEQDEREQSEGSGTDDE
T2 sequence (P51532 whole entry): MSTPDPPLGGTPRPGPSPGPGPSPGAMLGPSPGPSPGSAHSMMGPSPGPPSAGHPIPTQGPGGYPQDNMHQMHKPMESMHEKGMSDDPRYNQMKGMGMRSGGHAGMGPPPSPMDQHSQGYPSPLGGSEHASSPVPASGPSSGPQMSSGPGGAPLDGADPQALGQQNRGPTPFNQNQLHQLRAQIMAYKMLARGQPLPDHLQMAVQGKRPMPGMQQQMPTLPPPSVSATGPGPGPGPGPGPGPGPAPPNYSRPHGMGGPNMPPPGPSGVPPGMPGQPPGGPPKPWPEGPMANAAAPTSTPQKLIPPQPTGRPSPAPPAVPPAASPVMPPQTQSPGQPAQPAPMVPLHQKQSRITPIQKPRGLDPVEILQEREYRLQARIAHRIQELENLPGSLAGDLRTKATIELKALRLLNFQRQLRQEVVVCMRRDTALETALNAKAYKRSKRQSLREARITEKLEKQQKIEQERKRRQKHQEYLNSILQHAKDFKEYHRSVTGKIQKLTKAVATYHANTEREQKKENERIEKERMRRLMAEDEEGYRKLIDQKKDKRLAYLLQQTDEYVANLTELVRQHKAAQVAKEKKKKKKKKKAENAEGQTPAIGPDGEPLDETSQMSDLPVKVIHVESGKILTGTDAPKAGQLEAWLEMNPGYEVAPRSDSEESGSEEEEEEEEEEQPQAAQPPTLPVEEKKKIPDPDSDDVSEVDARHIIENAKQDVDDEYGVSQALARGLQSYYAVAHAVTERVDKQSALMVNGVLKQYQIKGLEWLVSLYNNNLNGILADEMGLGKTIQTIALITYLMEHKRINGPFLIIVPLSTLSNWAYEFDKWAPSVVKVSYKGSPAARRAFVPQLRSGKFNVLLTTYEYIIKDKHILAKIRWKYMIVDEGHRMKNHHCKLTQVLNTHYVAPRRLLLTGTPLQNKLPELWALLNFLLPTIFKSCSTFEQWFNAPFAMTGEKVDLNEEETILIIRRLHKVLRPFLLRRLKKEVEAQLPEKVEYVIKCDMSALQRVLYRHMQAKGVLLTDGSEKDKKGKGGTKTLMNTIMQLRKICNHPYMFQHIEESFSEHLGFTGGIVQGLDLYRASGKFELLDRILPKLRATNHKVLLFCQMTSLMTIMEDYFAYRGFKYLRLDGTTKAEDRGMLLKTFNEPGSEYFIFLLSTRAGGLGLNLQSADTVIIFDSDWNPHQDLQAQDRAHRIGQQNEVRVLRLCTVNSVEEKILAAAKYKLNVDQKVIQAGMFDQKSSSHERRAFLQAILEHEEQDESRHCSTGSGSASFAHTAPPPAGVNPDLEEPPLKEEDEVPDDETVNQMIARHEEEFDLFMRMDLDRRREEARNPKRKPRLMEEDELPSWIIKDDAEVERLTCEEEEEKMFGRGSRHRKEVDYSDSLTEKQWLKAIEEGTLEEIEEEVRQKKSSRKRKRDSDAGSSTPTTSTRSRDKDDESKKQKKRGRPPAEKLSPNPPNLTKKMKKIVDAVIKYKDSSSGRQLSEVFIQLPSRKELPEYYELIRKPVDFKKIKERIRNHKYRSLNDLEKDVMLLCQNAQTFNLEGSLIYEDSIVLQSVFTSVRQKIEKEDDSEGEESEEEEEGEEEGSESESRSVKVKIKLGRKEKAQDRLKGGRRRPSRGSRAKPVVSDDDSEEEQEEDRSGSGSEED

Ratio (BRG1 IC50 (μM) divided by BRM IC50 (μM)) (BRM) | IC50 (BRM) | IC50 (BRG-1) | Structure (SMILES)
16.77 | 2 nM | 33.9 nM | O=C(NCc1cc2nc(N3CCOc4cc(C5CC5)cnc43)ccc2cn1)c1ccc2c(c1)S(=O)(=O)[C@@H](F)CCO2 [Compound 38]
19.47 | 4 nM | 63 nM | O=C(NCc1cc2cc(-c3cccc(C4CC4)n3)ccc2cn1)c1cc(F)c2c(c1)S(=O)(=O)[C@@H](F)COC2 [Compound 118]
34.05 | 8.5 nM | 288 nM | C[C@H](NC(=O)c1cc(F)c2c(c1)S(=O)(=O)[C@@H](F)COC2)c1cc2nc(N3CCOc4ccc(C(F)F)nc43)ccc2cn1 [Compound 260]
35.16 | 9.8 nM | 344 nM | COc1ccc(-c2ccc3cnc(CNC(=O)c4cc(Cl)c5c(c4)S(=O)(=O)[C@@H](F)COC5)cc3n2)nc1[C@@H]1CC1(F)F [Compound 294]
16.06 | 5.9 nM | 110 nM | COc1nc(C)ccc1-c1ccc2cnc(CNC(=O)c3cc(F)c4c(c3)S(=O)(=O)[C@@H](F)CCO4)cc2n1 [Compound 193]
11.49 | 9.6 nM | 115 nM | C[C@@H]1CCN1c1cnc2c(c1)OCCN2c1ccc2cnc(CNC(=O)c3cc(Cl)c4c(c3)S(=O)(=O)[C@@H](F)COC4)cc2n1 [Compound 289]
25.36 | 7.6 nM | 172 nM | Cc1cc(C(=O)NCc2cc3nc(N4CCOc5ccc(C(F)F)nc54)ccc3cn2)cc2c1COC[C@H](F)S2(=O)=O [Compound 237]
20.33 | 5.8 nM | 127 nM | O=C(NCc1cc2nc(N3CCOc4cc(N5CCC5)cnc43)ccc2cn1)c1cc(F)c2c(c1)S(=O)(=O)[C@@H](F)CCO2 [Compound 190]
19.48 | 2.5 nM | 54.3 nM | COc1nc(C(F)F)ccc1-c1ccc2cnc(CNC(=O)c3cc(F)c4c(c3)S(=O)(=O)[C@@H](F)COC4)cc2n1 [Compound 53]
24.64 | 2.6 nM | 78.5 nM | O=C(NCc1cc2nc(N3CCOc4cc(N5C[C@@H](F)[C@H](F)C5)cnc43)ccc2cn1)c1cc(F)c2c(c1)S(=O)(=O)[C@@H](F)CCO2 [Compound 66]
16.34 | 7.8 nM | 128 nM | O=C(NCc1cc2nc(N3CCOc4cc(N5CC(CF)C5)cnc43)ccc2cn1)c1cc(F)c2c(c1)S(=O)(=O)[C@@H](F)CCO2 [Compound 248]
22.22 | 8.9 nM | 192 nM | C[C@@H](F)c1cnc2c(c1)OCCN2c1ccc2cnc(CNC(=O)c3cc(F)c4c(c3)S(=O)(=O)[C@@H](F)CCO4)cc2n1 [Compound 274]
10.62 | 5.6 nM | 59.9 nM | O=C(NCc1cc2cc(-c3ccc(OC(F)F)c(C4CC4)n3)ccc2cn1)c1cc(F)c2c(c1)S(=O)(=O)[C@@H](F)CCO2 [Compound 179]
10.41 | 6.1 nM | 64 nM | COCCc1cnc2c(c1)OCCN2c1ccc2cnc(CNC(=O)c3cc(F)c4c(c3)S(=O)(=O)[C@@H](F)CCO4)cc2n1 [Compound 201]
11.63 | 1.4 nM | 16.2 nM | CCO[C@@H]1CCN(c2cccc(-c3ccc4cnc(CNC(=O)c5cc(F)c6c(c5)S(=O)(=O)[C@@H](F)COC6)cc4n3)n2)C1 [Compound 12]
14.90 | 7.1 nM | 106 nM | [2H]C([2H])([2H])Oc1nscc1-c1ccc2cnc(CNC(=O)c3cc(F)c4c(c3)S(=O)(=O)[C@@H](F)CCO4)cc2n1 [Compound 226]
9.68 | 6.5 nM | 63.4 nM | O=C(NCc1cc2nc(N3CCCc4sc(C(F)F)nc43)ccc2cn1)c1cc(F)c2c(c1)S(=O)(=O)[C@@H](F)CCO2 [Compound 217]
23.91 | 7.4 nM | 163 nM | O=C(NCc1cc2cc(-c3cccc(OC(F)F)n3)ccc2cn1)c1cc(Cl)c2c(c1)S(=O)(=O)[C@@H](F)COC2 [Compound 235, (2R)-6-chloro-N-[[6-[6-(difluoromethoxy)-2-pyridyl]-3-isoquinolyl]methyl]-2-fluoro-1,1-dioxo-3,5-dihydro-2H-4,1λ6-benzoxathiepine-8-carboxamide]

Ratio (BRG1 IC50 (μM) divided by BRM IC50 (μM)) (BRM) | IC50 (BRM) | IC50 (BRG-1) | Structure (SMILES)
23.88 | 4.6 nM | 110 nM | [2H]C([2H])([2H])Oc1nc(C(F)F)ccc1-c1ccc2cnc(CNC(=O)c3cc(F)c4c(c3)S(=O)(=O)[C@@H](F)CCO4)cc2n1 [Compound 135]
22.96 | 3.1 nM | 68 nM | CCc1cnc2c(c1)OCCN2c1ccc2cnc(CNC(=O)c3cc(F)c4c(c3)S(=O)(=O)[C@@H](F)CCO4)cc2n1 [Compound 82]
23.82 | 2.8 nM | 67 nM | O=C(NCc1cc2cc(-c3cncc(C4CC4)n3)ccc2cn1)c1cc(F)c2c(c1)S(=O)(=O)[C@@H](F)COC2 [Compound 77]
9.67 | 9.2 nM | 75.5 nM | C[C@H](NC(=O)c1cc(F)c2c(c1)S(=O)(=O)[C@@H](F)COC2)c1cc2nc(N3CCOc4cc(C5CC5)cnc43)ccc2cn1 [Compound 278]
25.34 | 8.5 nM | 242 nM | C[C@H](NC(=O)c1cc(F)c2c(c1)S(=O)(=O)[C@@H](F)CCO2)c1cc2nc(N3CCOc4cc(N5CCC5)cnc43)ccc2cn1 [Compound 261]
13.20 | 1.6 nM | 20.7 nM | C[C@@H]1CN(c2cncc(-c3ccc4cnc(CNC(=O)c5cc(F)c6c(c5)S(=O)(=O)[C@@H](F)CCO6)cc4c3)n2)C[C@H](C)O1 [Compound 19, (4R)—N-[[6-[6-[(2S,6R)-2,6-dimethylmorpholin-4-yl]pyrazin-2-yl]-3-isoquinolyl]methyl]-4,9-difluoro-5,5-dioxo-3,4-dihydro-2H-1,5λ6-benzoxathiepine-7-carboxamide]
22.17 | 4 nM | 105 nM | C[C@@H]1C[C@H]1c1cnc2c(c1)OCCN2c1ccc2cnc(CNC(=O)c3cc(F)c4c(c3)S(=O)(=O)[C@@H](F)CCO4)cc2n1 [Compound 115]
13.76 | 6.5 nM | 89.3 nM | CO[C@@H]1C[C@H]1N(C)c1cccc(-c2ccc3cnc(CNC(=O)c4cc(F)c5c(c4)S(=O)(=O)[C@@H](F)COC5)cc3n2)n1 [Compound 215]
11.06 | 1.5 nM | 16.6 nM | O=C(NCc1cc2nc(N3CCCc4c3ncc(F)c4OC3CC3)ccc2cn1)c1cc(F)c2c(c1)S(=O)(=O)[C@@H](F)CCO2 [Compound 15]
19.61 | 9.1 nM | 90 nM | O=C(NCc1cc2nc(N3CCOc4ccc([C@H]5C[C@H]5F)nc43)ccc2cn1)c1cc(F)c2c(c1)S(=O)(=O)[C@@H](F)CCO2 [Compound 277]
16.24 | 3 nM | 48.4 nM | C[C@@H]1[C@@H](F)CN1c1cnc2c(c1)OCCN2c1ccc2cnc(CNC(=O)c3cc(F)c4c(c3)S(=O)(=O)[C@@H](F)CCO4)cc2n1 [Compound 80]
16.19 | 4.7 nM | 76.3 nM | O=C(NCc1cc2cc(N3CCOc4cc(C5CC5)cnc43)ccc2cn1)c1cc(F)c2c(c1)S(=O)(=O)[C@@H](F)CCO2 [Compound 141]
27.18 | 6.9 nM | 178 nM | COc1nc(C(F)F)ccc1-c1ccc2cnc(CNC(=O)c3cc(Cl)c4c(c3)S(=O)(=O)[C@@H](F)COC4)cc2n1 [Compound 221]
11.01 | 10.5 nM | 115 nM | O=C(NCc1cc2nc(N3CCOc4cc(C#CC5CC5)cnc43)ccc2cn1)c1cc(F)c2c(c1)S(=O)(=O)[C@@H](F)COC2 [Compound 309]
22.67 | 5.6 nM | 113 nM | COc1nc(C(F)F)ccc1-c1ccc2cnc(CNC(=O)c3cc(F)c4c(c3)S(=O)(=O)[C@@H](F)CCO4)cc2n1 [Compound 177]
17.77 | 18.3 nM | 325 nM | C[C@@H]1CN(c2cccc(-c3ccc4cnc(CNC(=O)c5cc(OC(F)F)c6c(c5)S(=O)(=O)[C@@H](F)CCO6)cc4n3)n2)C[C@H](C)O1 [Compound 316]
15.93 | 4.3 nM | 74.9 nM | O=C(NCc1cc2nc(N3CCOc4cc(N5C[C@@H](F)[C@@H](F)C5)cnc43)ccc2cn1)c1cc(F)c2c(c1)S(=O)(=O)[C@@H](F)CCO2 [Compound 124]
17.59 | 4.9 nM | 82.6 nM | C[C@@H]1CN(c2cccc(-c3ccc4cnc(CNC(=O)c5cc(Cl)c6c(c5)S(=O)(=O)[C@@H](F)CCO6)cc4n3)n2)C[C@H](C)O1 [Compound 148, (R)-9-chloro-N-((2-(6-((2S,6R)-2,6-dimethylmorpholino)pyridin-2-yl)-1,6-naphthyridin-7-yl)methyl)-4-fluoro-3,4-dihydro-2H-benzo[b][1,4]oxathiepine-7-carboxamide 5,5-dioxide]
